Measured values from patent EP4755885A1 (Shanghai Hansoh Biomedical Co., Ltd., priority 2023, dated 2025).
Like-named read-outs stand apart in the source and are kept apart here.

What was measured:
[1] = Pharmacokinetic evaluation in beagles, oral administration; type: in vivo; details: dog, po, p.o. 2 mg/kg, plasma; for Cmax: read-out: Cmax; for MRT inf: read-out: MRT 0-∞; for Tmax: read-out: tmax
Procedure, shortened: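 Male beagles (3) fasted overnight received 2 mg/kg orally as a 0.4 mg/mL solution in 10% PEG400/10% PG/80% glycine buffer, pH 9.0-9.5. Plasma (EDTA-K2) sampled predose and 0.25-24 h; acetonitrile precipitation, then LC/MS/MS quantification.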

human GLP-1 receptor = biological target: T1, human GLP-1 receptor (Homo sapiens, UniProt P43220); assay: cAMP production in cell line stably transformed with human GLP1 receptor, 2 h co-incubation (HTRF); type: cell-based; details: CHO-K1/GLP-1R/CRE-luc cells, stimulation for 2 h
T1 construct: expressed in transfected cells
T1 sequence (P43220 24-463): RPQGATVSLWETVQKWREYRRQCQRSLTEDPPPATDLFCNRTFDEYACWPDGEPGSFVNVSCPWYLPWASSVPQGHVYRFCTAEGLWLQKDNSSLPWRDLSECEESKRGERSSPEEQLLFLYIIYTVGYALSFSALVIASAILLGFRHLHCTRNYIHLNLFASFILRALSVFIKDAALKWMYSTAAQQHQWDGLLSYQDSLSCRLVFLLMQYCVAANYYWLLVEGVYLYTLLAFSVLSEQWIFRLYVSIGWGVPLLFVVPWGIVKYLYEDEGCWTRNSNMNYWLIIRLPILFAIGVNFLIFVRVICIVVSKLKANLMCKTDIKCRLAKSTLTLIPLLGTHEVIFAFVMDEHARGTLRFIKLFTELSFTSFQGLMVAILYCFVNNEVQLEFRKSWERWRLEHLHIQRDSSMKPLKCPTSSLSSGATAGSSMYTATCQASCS
Procedure, shortened: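 CHO-K1/GLP-1R/CRE-luc cells (human GLP-1R) incubated 2 h at 37 °C with compound (12-point 3-fold series) and 0.5 mM IBMX in DMEM/F12 with 0.1% casein. cAMP measured by HTRF (665/620 nm ratio); EC50 from four-parameter fit.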

[2] = Pharmacokinetic evaluation in mice, oral administration; type: in vivo, Balb/c mice; details: p.o. 5 mg/kg, plasma, single PK; for AUC(0-inf) / AUC(0-t) / Cmax / Tmax / MRT inf: mouse, in vivo, po; for MRT inf: read-out: MRT 0-∞
Procedure, shortened: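 Male Balb/c mice (n=3) dosed p.o. at 5 mg/kg after overnight fast, vehicle 10% PEG400/10% PG/80% glycine buffer (pH 10), 0.5 mg/mL. EDTA plasma, acetonitrile precipitation, compound quantified by LC/MS/MS; PK parameters by noncompartmental-style software calculation.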

SMILES | AUC(0-inf) [1] [ng·h/mL] | AUC(0-t) at 24 h [1] [ng·h/mL] | half-life [1] [h] | Cmax [1] [ng/mL] | MRT inf [1] [h] | Tmax [1] [h] | EC50 (human GLP-1 receptor; read-out: EC50) [nM] | AUC(0-inf) [2] [ng·h/mL] | AUC(0-t) [2] [ng·h/mL] | Cmax [2] [ng/mL] | Tmax [2] [h] | MRT inf [2] [h] | tl/2 [2] [h] | further results
CC#C[C@H]1C[C@]1(c1noc(=O)[nH]1)n1c(C(=O)N2CCc3nn(-c4cc(C)c(F)c(C)c4)c(-n4ccn(-c5ccc6c(cnn6C6CC6)c5F)c4=O)c3[C@@H]2C)cc2cc([C@H]3CCOC(C)(C)C3)ccc21 [Example 144, 3-((1S,2R)-1-(2-((S)-3-(3-(1-cyclopropyl-4-fluoro-1H-indazole-5-yl)-2-carbonyl-2,3-dihydro-1H-imidazole-1-yl)-2-(4-fluoro-3,5-dimethylphenyl)-4-methyl-4,5,6,7-tetrahydro-2H-pyrazolo[4,3-c]pyridin-5-carbonyl)-5-((S)-2,2-dimethyltetrahydro-2H-pyrano-4-yl)-1H-indole-1-yl)-2-(propyl-1-alkynyl-1-yl)cyclopropyl)-1,2,4-oxadiazol-5(4H)-one] | 16600 | 15900 | 5.8 | 2470 | 6.5 | 1.7 | 0.05 | 35100 | 23500 | 2240 | 3 | 20.8 | 15.7 | –
[2H]C([2H])([2H])n1nc2c3c(c(-n4ccn(-c5c6c(nn5-c5cc(C)c(F)c(C)c5)CCN(C(=O)c5cc7cc([C@H]8CCOC(C)(C)C8)ccc7n5[C@@]5(c7noc(=O)[nH]7)C[C@@H]5C)[C@H]6C)c4=O)ccc31)OCCC2 [Example 282, 3-((1S,2S)-1-(5-((S)-2,2-dimethyltetrahydro-2H-pyran-4-yl)-2-((S)-2-(4-fluoro-3,5-dimethylphenyl)-4-methyl-3-(3-(2-(methyl-d3)-2,7,8,9-tetrahydrooxaheptano[4,3,2-cd]indazol-5-yl)-2-carbonyl-2,3-dihydro-1H-imidazol-1-yl)-4,5,6,7-tetrahydro-2H-pyrazolo[4,3-c]pyridine-5-carbonyl)-1H-indol-1-yl)-2-methylcyclopropyl)-1,2,4-oxadiazol-5(4H)-one] | 10800 | 9130 | 8.5 | 858 | 12.1 | 2 | 0.074 | 18200 | 15000 | 1510 | 2 | 13 | 9.7 | –
C#C[C@H]1C[C@]1(c1noc(=O)[nH]1)n1c(C(=O)N2CCc3nn(-c4cc(C)c(F)c(C)c4)c(-n4ccn(-c5ccc6c(cnn6C6CC6)c5F)c4=O)c3[C@@H]2C)cc2cc([C@H]3CCOC(C)(C)C3)ccc21 [Example 143] | – | – | – | – | – | – | 0.013 | – | – | – | – | – | 6.9 | AUC(0-inf) ([1]; male, beagle): 17800 ng·h/mL; half-life ([1]; male, beagle): 3.3 h; AUC(0-t) ([1]; male, beagle, read-out: AUC 0-t): 13800 ng·h/mL; Cmax ([1]; male, beagle): 2040 ng/mL; MRT inf ([1]; male, beagle): 4.8 h; Tmax ([1]; male, beagle): 2.7 h; AUC(0-inf) ([2]; male, Balb/c): 13300 ng·h/mL; AUC(0-t) ([2]; male, Balb/c): 12200 ng·h/mL; Cmax ([2]; male, Balb/c): 1200 ng/mL; Tmax ([2]; male, Balb/c): 2 h; MRT inf ([2]; male, Balb/c): 9 h
Cc1cc(-n2nc3c(c2-n2ccn(-c4ccc5c(cnn5C5CC5)c4F)c2=O)[C@H](C)N(C(=O)c2cc4cc([C@H]5CCOC(C)(C)C5)ccc4n2[C@@]2(c4noc(=O)[nH]4)C[C@@H]2COC2CC2)CC3)cc(C)c1F [Example 67] | 11800 | 11500 | 4.2 | 2110 | 5.7 | 1.5 | – | 12100 | 11200 | 1430 | 4 | 8.2 | 7.6 | EC50 (human GLP-1 receptor): 0.024 nM
